Read-outs that look alike come from different tables or passages of the source.
Experiments:
VEGFR2 and FGFR1 = test: Selection of compounds that selectively inhibit both VEGFR2 and FGFR1 (average relative IC50); format: biochemical; details: average of VEGFR2 and FGFR1 relative IC50
Zmpste24−/− mice [1] = test: Mouse model of progeria: body fat (Echo MRI), lean muscle, body weight, intrascapular brown fat; format: in vivo; details: for Body fat (Echo MRI) vs vehicle / Intrascapular brown fat mass (percent of body weight) vs vehicle: Brivanib alaninate 50, SU5402 25, Cediranib maleate 5, Regorafenib 10, infigratinib 5 mg/kg
Description: Zmpste24 mice, a progeria model mouse line, were dosed with either 50 mg/kg Brivanib alaninate for 56 days, 5 days on, 2 days off (QD5), or vehicle alone. The dose was administered via oral gavage as a suspension of 18% (w/v) PEG400 2% (w/v) Tween-80 in water . The vehicle alone was 18% (w/v) PEG400 2% (w/v) Tween-80 in water.
The body fat of the mice was measured by an Echo MRI throughout the treatment.
Samples of intrascapular brown adipose tissue from 15 week old mice treated with Brivanib Alaninate or vehicle for 56 days underwent Hematoxylin and Eosin (H&E) staining.
Zmpste24−/− mice, a progeria model mouse line, were dosed with either 25 mg/kg SU5402 for 56 days, 5 days on, 2 days off (QD5) or vehicle alone. The dose was administered via oral gavage as a suspension of 5% (w/v) DMSO 9% (w/v) PEG400 1% (w/v) Tween-80 in saline. The vehicle alone was 5% (w/v) DMSO 9% (w/v) PEG400 1% (w/v) Tween-80 in saline.
The body fat of the mice was measured by an Echo […]. Lean muscle and body weight were also measured.
The dose was administered via oral gavage as a suspension of 18% (w/v) PEG400 2% (w/v) Tween-80 in water . The vehicle alone was 18% (w/v) PEG400 2% (w/v) Tween-80 in water.
The body fat of the mice was measured by an Echo MRI. […] There was also no alteration of intrascapular brown adipose tissue mass (FIG. 5D).
The dose was administered via oral gavage as a suspension of 18% (w/v) PEG400 2% (w/v) Tween-80 in water. The vehicle alone was 18% (w/v) PEG400 2% (w/v) Tween-80 in water.
The body fat of the mice was measured by an Echo MM. […] There was also no alteration of intrascapular brown adipose tissue mass (FIG. 6D).
The body fat of the mice was measure by an Echo MRI. […] There was also no alteration of intrascapular brown adipose tissue mass (FIG. 7D). […]

VEGFR2 [2] = target: T1, VEGFR2 (Homo sapiens, UniProt P35968); details: relative IC50: reported IC50 toward VEGFR2 divided by next lowest reported IC50 to any gene target
T1 sequence (P35968 20-1356, species assumed): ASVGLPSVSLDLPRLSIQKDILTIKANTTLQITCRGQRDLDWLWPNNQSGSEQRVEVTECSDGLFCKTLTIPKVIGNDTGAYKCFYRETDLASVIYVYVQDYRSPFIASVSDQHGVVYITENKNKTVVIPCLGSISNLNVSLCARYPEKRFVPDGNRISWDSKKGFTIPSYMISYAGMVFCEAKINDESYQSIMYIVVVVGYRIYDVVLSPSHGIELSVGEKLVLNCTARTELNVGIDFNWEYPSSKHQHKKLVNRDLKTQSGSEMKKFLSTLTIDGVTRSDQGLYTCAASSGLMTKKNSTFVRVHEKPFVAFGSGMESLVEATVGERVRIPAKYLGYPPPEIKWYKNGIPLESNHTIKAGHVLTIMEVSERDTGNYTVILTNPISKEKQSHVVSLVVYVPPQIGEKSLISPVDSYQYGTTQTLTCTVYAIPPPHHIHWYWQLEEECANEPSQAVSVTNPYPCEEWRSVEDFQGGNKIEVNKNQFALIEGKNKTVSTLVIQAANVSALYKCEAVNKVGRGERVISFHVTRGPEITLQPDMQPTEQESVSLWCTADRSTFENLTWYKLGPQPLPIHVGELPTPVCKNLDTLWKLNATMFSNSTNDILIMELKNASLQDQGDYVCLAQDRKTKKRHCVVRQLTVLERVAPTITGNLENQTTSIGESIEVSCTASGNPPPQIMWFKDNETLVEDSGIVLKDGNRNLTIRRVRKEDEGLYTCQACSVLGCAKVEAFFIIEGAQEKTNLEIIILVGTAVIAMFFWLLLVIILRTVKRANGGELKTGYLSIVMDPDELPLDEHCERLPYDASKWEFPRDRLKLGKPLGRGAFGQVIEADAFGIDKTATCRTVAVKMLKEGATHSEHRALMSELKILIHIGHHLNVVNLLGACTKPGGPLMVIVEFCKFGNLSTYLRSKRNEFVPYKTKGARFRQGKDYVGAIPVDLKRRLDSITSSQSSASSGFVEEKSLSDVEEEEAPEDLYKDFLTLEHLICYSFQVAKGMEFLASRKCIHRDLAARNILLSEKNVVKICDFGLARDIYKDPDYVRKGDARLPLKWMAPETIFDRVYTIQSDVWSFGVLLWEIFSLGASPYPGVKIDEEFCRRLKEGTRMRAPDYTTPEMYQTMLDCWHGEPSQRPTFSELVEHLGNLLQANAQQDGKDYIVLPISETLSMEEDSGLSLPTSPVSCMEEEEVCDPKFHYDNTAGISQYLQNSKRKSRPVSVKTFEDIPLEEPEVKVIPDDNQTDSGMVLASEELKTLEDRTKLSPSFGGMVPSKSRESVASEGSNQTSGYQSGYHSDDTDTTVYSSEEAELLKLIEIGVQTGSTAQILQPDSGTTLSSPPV

FGFR1 = FGFR1 (Homo sapiens, UniProt P11362); details: relative IC50: reported IC50 toward FGFR1 divided by next lowest reported IC50 to any gene target
FGFR1, sequence (P11362 22-822, species assumed): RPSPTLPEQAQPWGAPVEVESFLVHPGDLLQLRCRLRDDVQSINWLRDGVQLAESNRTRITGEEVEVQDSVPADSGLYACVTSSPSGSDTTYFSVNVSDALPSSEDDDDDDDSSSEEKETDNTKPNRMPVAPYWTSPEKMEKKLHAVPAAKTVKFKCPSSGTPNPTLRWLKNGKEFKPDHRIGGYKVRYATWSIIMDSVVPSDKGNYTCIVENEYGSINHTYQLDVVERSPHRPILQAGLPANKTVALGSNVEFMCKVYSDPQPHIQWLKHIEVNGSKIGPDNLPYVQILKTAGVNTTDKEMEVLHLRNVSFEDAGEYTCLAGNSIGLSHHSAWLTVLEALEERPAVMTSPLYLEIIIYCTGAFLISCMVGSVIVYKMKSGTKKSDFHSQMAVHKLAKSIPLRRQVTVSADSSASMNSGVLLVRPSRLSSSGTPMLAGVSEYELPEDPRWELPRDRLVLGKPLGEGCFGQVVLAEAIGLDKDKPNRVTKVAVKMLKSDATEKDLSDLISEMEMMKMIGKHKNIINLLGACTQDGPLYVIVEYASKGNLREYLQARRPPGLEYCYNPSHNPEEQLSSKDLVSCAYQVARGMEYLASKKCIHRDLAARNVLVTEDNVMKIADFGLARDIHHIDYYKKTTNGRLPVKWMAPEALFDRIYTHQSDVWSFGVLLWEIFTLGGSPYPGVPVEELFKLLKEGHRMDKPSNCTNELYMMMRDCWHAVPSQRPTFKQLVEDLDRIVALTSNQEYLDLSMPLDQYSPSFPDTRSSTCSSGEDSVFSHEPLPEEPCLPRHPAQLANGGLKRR

any gene target = details: cited from earlier work
EPHX2 = target: T2, EPHX2 (Homo sapiens, UniProt P34913); details: cited from earlier work
T2 sequence (P34913 1-555): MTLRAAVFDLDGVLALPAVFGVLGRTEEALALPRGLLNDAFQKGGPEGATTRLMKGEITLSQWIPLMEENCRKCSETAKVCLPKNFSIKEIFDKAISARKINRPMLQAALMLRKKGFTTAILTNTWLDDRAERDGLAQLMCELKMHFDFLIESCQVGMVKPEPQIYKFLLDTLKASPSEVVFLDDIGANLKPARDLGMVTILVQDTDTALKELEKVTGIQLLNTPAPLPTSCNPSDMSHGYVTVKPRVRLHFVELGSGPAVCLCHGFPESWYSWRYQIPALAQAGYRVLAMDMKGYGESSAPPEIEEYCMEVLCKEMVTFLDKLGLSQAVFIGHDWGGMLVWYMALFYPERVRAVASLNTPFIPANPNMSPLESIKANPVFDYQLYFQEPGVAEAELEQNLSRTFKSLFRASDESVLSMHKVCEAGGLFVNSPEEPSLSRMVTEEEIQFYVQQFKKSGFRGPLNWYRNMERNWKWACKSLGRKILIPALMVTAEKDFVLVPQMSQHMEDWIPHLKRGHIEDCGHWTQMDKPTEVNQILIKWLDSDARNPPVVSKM

Zmpste24−/− mice [3] = test: Mouse model of progeria: bone loss score of vertebrae and femur (H&E sections); format: in vivo; details: 50 mg/kg oral QD5 56 days, 15 weeks of age
Description: Zmpste24−/− mice were dosed with either 50 mg/kg Brivanib Alaninate for 56 days, 5 days on, 2 days off (QD5), or vehicle alone. The dose was administered via oral gavage as a suspension of 18% (w/v) PEG400 2% Tween-80 (w/v) in water . The vehicle alone was 18% (w/v) PEG400 2% (w/v) Tween-80 in water.
The mice were assessed for bone loss in the vertebrae and femur at 15 weeks of age. Bone loss was scored by a pathologist using H&E stained sections of vertebrae or femur samples by the following criteria:
The mice that are treated with a selective VEGFR2 inhibitor and a selective FGFR1 inhibitor are also assessed for bone loss in the vertebrae and femur. Bone loss is scored by a pathologist using the criteria in Example 2.

[4] = system: C57BL6 mice fed a high fat, high cholesterol, high fructose diet; test: Mouse model of diet induced fatty liver disease; format: in vivo; details: 28 days
VEGFR2 [5] = target: T1, VEGFR2; details: read-out: VEGFR2 IC50_μM; reported IC50 to VEGFR2; cited from earlier work
[6] = oral gavage QD5 for 56 days, SU5402 25, Cediranib maleate 5, Regorafenib 10, infigratinib 5 mg/kg
[7] = lowest reported IC50 to any gene target, read-out: min IC50
[8] = 50 mg/kg i.p. once a day, relative to standard diet

In the case of CNC(=O)c1cc(Oc2ccc(NC(=O)Nc3ccc(Cl)c(C(F)(F)F)c3)c(F)c2)ccn1 [compound 11167602, Regorafenib], the “avg rIC50” value (VEGFR2 and FGFR1) is reported as 5.7, the “Body fat (Echo MRI) vs vehicle” value (Zmpste24−/− mice [1]; oral gavage QD5 for 56 days) is reported as “did not show an increase” and the “Intrascapular brown fat mass (percent of body weight) vs vehicle” value (Zmpste24−/− mice [1]; oral gavage QD5 for 56 days) is reported as “no alteration”. For the same compound, the “Body weight vs vehicle” value (Zmpste24−/− mice [1]; [6]) was “did not show an increase”, the “Lean muscle vs vehicle” value (Zmpste24−/− mice [1]; [6]) was “did not show an increase” and the “VEGFR2, rIC50” value (VEGFR2 [2]) was 8.4. The “FGFR1, rIC50” value (FGFR1) was 3.0, the IC50 (any gene target; [7]) was 1 nM and the IC50 (EPHX2) was less than 3 nM.

With Cc1cc2c(F)c(Oc3ncnn4cc(OC[C@@H](C)OC(=O)[C@@H](C)N)c(C)c34)ccc2[nH]1 [compound 11234052, Brivanib alaninate (Brivanib)] the “avg rIC50” value (VEGFR2 and FGFR1) was 1.0, the “Lipid content in intrascapular brown adipose tissue (H&E)” value (Zmpste24−/− mice [1]; 15 week old mice, 50 mg/kg for 56 days) was “increased lipid content” and the “Body fat (Echo MRI) vs vehicle” value (Zmpste24−/− mice [1]; oral gavage QD5 for 56 days) was “increase in body mass starting at 6 weeks of age”. For the same compound, the “Intrascapular brown fat mass (percent of body weight) vs vehicle” value (Zmpste24−/− mice [1]; oral gavage QD5 for 56 days) was “made up for more of the percent of the body weight”, the “Bone loss score, femur: most severe score in the group” value (Zmpste24−/− mice [3]) was 0.5 (0.5 = less than 1%) and the “Bone loss score, vertebrae: most severe score in the group” value (Zmpste24−/− mice [3]) was 4 (4 = 51-75%). The “Bone loss scores vs vehicle” value (Zmpste24−/− mice [3]) was “lower bone loss scores”, the “Share of mice with the most severe score, femur” value (Zmpste24−/− mice [3]) was “about 30%” and the “Share of mice with the most severe score, vertebrae” value (Zmpste24−/− mice [3]) was “about 15%”. For the same compound, the “Liver lipid content (H&E) vs vehicle” value ([4]; 25 mg/kg i.p. once a day) was “decreased liver lipid content”, the “Size of adipocytes in the epididymal fat pad vs vehicle” value ([4]; 25 mg/kg i.p. once a day) was “decreased the size of adipocytes” and the “Thickness of the abdominal subcutaneous adipose” value ([4]; 25 mg/kg i.p. once a day) was “increased in the thickness”. The “Increase in blood urea nitrogen vs fatty liver diet + vehicle” value [4, 8] was “less of an increase”, the “Increase in body weight vs fatty liver diet + vehicle” value [4, 8] was “less of an increase” and the “Increase in liver mass vs fatty liver diet + vehicle” value [4, 8] was “less of an increase”. For the same compound, the “Increase in serum cholesterol vs fatty liver diet + vehicle” value [4, 8] was “less of an increase”, the “Increase in serum triglycerides vs fatty liver diet + vehicle” value [4, 8] was “less of an increase” and the “VEGFR2, rIC50” value (VEGFR2 [2]) was 0.9. The “FGFR1, rIC50” value (FGFR1) was 1.1, the IC50 (VEGFR2 [5]) was 25 nM and the IC50 (any gene target; [7]) was 25 nM. For the same compound, the IC50 (any gene target; next lowest IC50 value to any gene target, read-out: Min IC50_μM) was 28 nM.
